Measurements: US20120238562A1, “TREATMENT OF CANCER BY TARGETING MOLECULES THAT INFLUENCE MST1/STK4 SIGNALING” (CEDARS-SINAI MEDICAL CENTER, priority 2011, published 2012)
Entries after “also recorded” stand apart in the source; their conditions may differ.

Key:
Assay type in all cases: cell-based, human
C4-2 cells = test: Cell proliferation by MTS assay, C4-2 cells; conditions: for C4-2 cell growth / proliferation vs control (MTS, A490 nm): 48 h post treatment, vs DMSO, Ku0063794 1 μM, rapamycin 1 μM (p<0.1), BEZ-235 0.5 μM (p<0.002)
Method: A, B) LNCaP (A) or C4-2 (B) cells were treated with control (DMSO), LY294002 (20 μM), Ku0063794 (1 μM), rapamycin (1 μM), LY294002+Ku0063794, or LY294002+Rapamycin. C) C4-2 cells were treated with DMSO or the dual PI3K and mTOR inhibitor, BEZ-235 (0.5 μM). Control or drug treatments were performed in T-medium supplemented with 5% FBS and 1% Pen/Strep. Cell proliferation was determined by MTS assay (A490 nm) at 48 h post treatment. D) Levels of endogenous total Mst1 by western blot in cytoplasmic (C) and nuclear (N) fractions from C4-2 cells that were transfected with scramble or Mst1 specific SiRNa. B-actin was used as a loading control. E) Effects of DMSO or CCI-779 on C4-2 cell proliferation with scramble or MSt1 knockdown conditions. Cell proliferation was determined by MTS (A490 nm) at 72 h post transfection. Data are representative of multiple experiments.
Cell proliferation was measured using CellTiter 96 AQueous with MTS reagent (Promega, Madison, Wis.). Briefly, cells in RPMI-medium plus 10% fetal bovine serum were added to 96-well plates at 4,000 cells per well in quadruplicate. After 24 h, LY290042, Ku0063794, Rapamycin, CCI-779 or BEZ-235 alone or combined were added, and cells were cultured for the indicated time. DMSO was used as a control. At 24 h post siRNA transfection, cells were treated with DMSO control or CCI-779 and incubated up to 72 h. MTS and phenazine methosulfate solution (20 μL/well) was added and the absorbance at 490 nm was recorded using a microplate reader (BMG Labtech; Cary, N.C.). For the clonogenic assay, 500 cells per well were seeded and cultured in 6-well plates for a week in the presence of Dox (0.5 μg/mL) in serum-fed conditions. The medium was changed every 3 days. Colonies were fixed with formaldehyde (4% v/v) and stained with crystal violet (0.5%). Representative views from triplicate experiments were photographed and quantified. […] After 14 days, colonies were photographed and quantified. […]

[1] = tested on: Mst1-T120 phosphorylation; test: Western blot of Mst1-T120 phosphorylation in cytoplasmic and nuclear fractions of C4-2 cells; conditions: serum-deprived, 3 h post treatment, vs DMSO control, LY294002 20 μM, Ku0063794 1 μM, CCI-779 1 μM
Method: (§1) A) Schematic representation of the GST-Mst1 peptide with wild type (wt) T120 or T120A mutations. B) In vitro kinase assay with bacterially expressed and purified GST-only, GST-Mst1-T120 wt, or GST-Mst1-T120A mutant peptide and the recombinant pre-activated Akt kinase. Western blots were probed with pMst1-T120 antibody. Ponceau S stained purified GST, GST-Mst1-T120, or GST-Mst1-T120A mutant peptide. C) LNCaP cells were treated with DMSO (vehicle) control, a specific PI3K inhibitor, LY294002 (20 μM), or mTOR inhibitor, Ku0063794 (1 μM) in serum-starved conditions. […]
(§2) A nuclear extraction kit according to the manufacturer's protocol (Affymetrix, Santa Clara, Calif.) was used to isolate cytoplasmic and nuclear fractions. […] Protein concentrations were determined by the Lowry method (Bio-Rad, Hercules, Calif.). […] Signals were detected using SuperSignal West Pico Chemiluminescence Substrate (Thermo Scientific, Roxford, Ill.).
(§3) The inventors generated GST-Mst1 peptide with T120-wt or T120A mutations (FIG. 2A). […] The inventors then assessed the effects of PI3K-Akt inhibition on Mst1-T120 phosphorylation in its respective location in the cell. […] The levels of phospho-Mst1-T120 were assessed by western blot in cytoplasmic and nuclear fractions. […]

Mst1 = test: Western blot of Mst1 nuclear accumulation in C4-2 cells; conditions: Ku0063794 1 μM or CCI-779 1 μM, 3 h post treatment
Method: A) Schematic representation of the GST-Mst1 peptide with wild type (wt) T120 or T120A mutations. B) In vitro kinase assay with bacterially expressed and purified GST-only, GST-Mst1-T120 wt, or GST-Mst1-T120A mutant peptide and the recombinant pre-activated Akt kinase. Western blots were probed with pMst1-T120 antibody. Ponceau S stained purified GST, GST-Mst1-T120, or GST-Mst1-T120A mutant peptide. C) LNCaP cells were treated with DMSO (vehicle) control, a specific PI3K inhibitor, LY294002 (20 μM), or mTOR inhibitor, Ku0063794 (1 μM) in serum-starved conditions. D) C4-2 cells were treated with Temsirolimus (CCI-779), an mTORC1 inhibitor (1 μM) in addition to DMSO, LY294002 and Ku0063794 under the same experimental conditions as in “C”. E) C4-2 cells treated with DMSO or LY294002 and CCI-779. Control/DMSO or drug treatment in “C,” “D,” or “E” was performed under serum-deprived conditions. Western blots were probed with antibodies to corresponding proteins at 3 h post treatment. Lam-A/C:Lamin-A/C. […]
as §2, with “Ill.). […]” for “Ill.).”

Akt = Akt activation in C4-2 cells under mTOR inhibition; conditions: castration-resistant prostate cancer cells (C4-2), same conditions as Mst1-T120 hyper-phosphorylation
Method: A) Schematic representation of the GST-Mst1 peptide with wild type (wt) T120 or T120A mutations. B) In vitro kinase assay with bacterially expressed and purified GST-only, GST-Mst1-T120 wt, or GST-Mst1-T120A mutant peptide and the recombinant pre-activated Akt kinase. Western blots were probed with pMst1-T120 antibody. Ponceau S stained purified GST, GST-Mst1-T120, or GST-Mst1-T120A mutant peptide. C) LNCaP cells were treated with DMSO (vehicle) control, a specific PI3K inhibitor, LY294002 (20 μM), or mTOR inhibitor, Ku0063794 (1 μM) in serum-starved conditions. D) C4-2 cells were treated with Temsirolimus (CCI-779), an mTORC1 inhibitor (1 μM) in addition to DMSO, LY294002 and Ku0063794 under the same experimental conditions as in “C”. E) C4-2 cells treated with DMSO or LY294002 and CCI-779. Control/DMSO or drug treatment in “C,” “D,” or “E” was performed under serum-deprived conditions. Western blots were probed with antibodies to corresponding proteins at 3 h post treatment. Lam-A/C:Lamin-A/C. Data are representative of multiple experiments.
Consistent with this finding, PI3K and mTORC1 inhibition combined synergistically to prevent the proliferation of C4-2 cells compared to a single agent (FIG. 3B). […]

[2] = tested on: Mst1-T120 phosphorylation; test: Western blot of Mst1-T120 phosphorylation in cytoplasmic and nuclear fractions of LNCaP cells; conditions: serum-starved, 3 h post treatment, vs DMSO control, LY294002 20 μM, Ku0063794 1 μM
Method: as §1, §2, §3

[3] = tested on: Mst1-T183 phosphorylation; test: Mst1-T183 phosphorylation in treated prostate cancer cells; conditions: prostate cancer cells treated with inhibitor
Method: However, the levels of […] phosphorylation were unchanged when cells were treated with a potent mTOR inhibitor, Ku0063794, (FIG. 3). […] Based on these observations, the inventors therefore conclude that Mst1-phosphorylation at T120 or at […] are unrelated events or is modulated by different mechanisms, at least in prostate cancer cells.

| SMILES | C4-2 cell growth / proliferation vs control (MTS, A490 nm) (C4-2 cells) | Mst1-T120 phosphorylation [1] | Mst1 nuclear accumulation (Mst1) | C4-2 cell proliferation under Mst1 knockdown vs scramble siRNA (MTS, A490 nm) (C4-2 cells; Mst1 siRNA vs scramble siRNA, CCI-779 vs DMSO, 72 h post transfection) | Akt activation (Akt) | Mst1-T120 phosphorylation in cell nuclei [2] | Mst1-T183 phosphorylation [3] |
| --- | --- | --- | --- | --- | --- | --- | --- |
| Cn1c(=O)n(-c2ccc(C(C)(C)C#N)cc2)c2c3cc(-c4cnc5ccccc5c4)ccc3ncc21 [BEZ-235] | significantly inhibited | – | – | – | – | – | – |
| CO[C@H]1C[C@@H]2CC[C@@H](C)[C@@](O)(O2)C(=O)C(=O)N2CCCC[C@H]2C(=O)O[C@H]([C@H](C)C[C@@H]2CC[C@@H](OC(=O)C(C)(CO)CO)[C@H](OC)C2)CC(=O)[C@H](C)/C=C(\C)[C@@H](O)[C@@H](OC)C(=O)[C@H](C)C[C@H](C)/C=C/C=C/C=C/1C [CCI-779, temsirolimus] | – | hyper-phosphorylation; also recorded: hyperphosphorylation | increase | sensitized | did not observe Akt activation | – | – |
| COc1ccc(-c2ccc3c(N4CCOCC4)nc(N4C[C@@H](C)O[C@@H](C)C4)nc3n2)cc1CO [Ku0063794] | failed to significantly inhibit | hyper-phosphorylation; also recorded: hyperphosphorylation | increase | – | did not observe Akt activation | unable to prevent | unchanged |
